Blank lines part the entries; values can stand above or below the molecule they belong to.
Tests used:
PGHS-2 = settings: cytokine-treated astrocytes; cited from earlier work
colon polyp = settings: patients with familial polyposis; cited from earlier work
griPGHS = target: T1, griPGHS (Mus musculus, UniProt Q05769); settings: E9 cells
T1 sequence (Q05769 18-604): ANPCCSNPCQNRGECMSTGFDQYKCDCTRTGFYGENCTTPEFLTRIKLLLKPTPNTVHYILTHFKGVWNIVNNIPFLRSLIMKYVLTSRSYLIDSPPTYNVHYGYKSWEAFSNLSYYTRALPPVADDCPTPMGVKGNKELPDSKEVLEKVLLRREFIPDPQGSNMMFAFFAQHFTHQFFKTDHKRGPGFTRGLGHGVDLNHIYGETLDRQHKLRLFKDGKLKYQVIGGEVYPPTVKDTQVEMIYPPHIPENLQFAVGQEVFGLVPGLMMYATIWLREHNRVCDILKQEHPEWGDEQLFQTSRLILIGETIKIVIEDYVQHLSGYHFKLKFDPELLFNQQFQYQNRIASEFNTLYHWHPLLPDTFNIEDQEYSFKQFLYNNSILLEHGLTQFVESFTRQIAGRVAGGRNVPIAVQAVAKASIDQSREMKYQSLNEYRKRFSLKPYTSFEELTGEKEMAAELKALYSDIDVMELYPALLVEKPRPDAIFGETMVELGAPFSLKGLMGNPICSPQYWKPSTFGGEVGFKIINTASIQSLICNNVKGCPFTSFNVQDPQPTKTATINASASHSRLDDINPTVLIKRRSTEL
Experimental: (§1) Cyclooxygenase activity was determined in the cultures by addition of media containing exogenous arachidonic acid substrate (30 AM for 15 min. at 37° C.) followed by conversion of the prostaglandin E2 product to a methyl oximate form. This derivative was then quantitated by radioimmunoassay (kit from Amersham Corp.).
Prostaglandin assays were carried out as described above. For drug studies, cells were exposed to various concentrations of drugs for 30 min in serum-free DMEM and arachidonic acid was added directly from a 25×stock in DMEM. Supernatants were harvested 15 min later. Controls consisted of no drugs and wells treated with maximal concentrations of drug vehicles (1% methanol or ethanol).
Cells were placed in serum-free medium with the drugs for 30 min prior to a 15 min exposure to arachidonic acid (added directly to the media). Synthesized PGE2 was then quantitated from the supernatants by a standard radio immunoassay.

colon tumor = settings: several clinical trials; cited from earlier work
human PGHS-2 = target: T2, human PGHS-2 (Homo sapiens, UniProt P35354); settings: cell lines incl. H17A5 (PGHS-1) and 4B4 (PGHS-2), 30 min drug, 15 min arachidonic acid
T2 sequence (P35354 18-604): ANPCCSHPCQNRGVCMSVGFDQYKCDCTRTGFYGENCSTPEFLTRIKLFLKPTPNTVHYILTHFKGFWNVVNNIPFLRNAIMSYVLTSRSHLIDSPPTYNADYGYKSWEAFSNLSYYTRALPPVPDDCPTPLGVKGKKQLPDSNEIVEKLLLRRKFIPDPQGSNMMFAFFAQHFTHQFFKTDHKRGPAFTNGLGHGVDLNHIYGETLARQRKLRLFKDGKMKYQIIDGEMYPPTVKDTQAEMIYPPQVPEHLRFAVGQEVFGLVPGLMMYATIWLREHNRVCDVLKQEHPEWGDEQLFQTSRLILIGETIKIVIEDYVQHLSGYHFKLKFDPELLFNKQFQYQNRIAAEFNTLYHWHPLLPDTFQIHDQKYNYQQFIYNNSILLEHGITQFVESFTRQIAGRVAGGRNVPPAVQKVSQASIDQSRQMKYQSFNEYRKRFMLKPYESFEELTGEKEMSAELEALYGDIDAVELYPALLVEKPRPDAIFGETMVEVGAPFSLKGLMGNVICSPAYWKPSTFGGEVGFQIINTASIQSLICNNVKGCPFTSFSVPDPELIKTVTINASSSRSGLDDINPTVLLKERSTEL
Experimental: PGHS-1 and PGHS-2 cell lines (including 4B4 and H17A5) were exposed to various concentrations of NSAID for 30 min in serum-free DMEM. Arachidonic acid was added directly from a 25×stock in DMEM and supernatants were harvested 15 min later. Controls consisted of no drug treatment and cells treated with the maximal concentrations of drug vehicles (1% methanol or ethanol). […] Cyclooxygenase activity was determined as described herein above.

2.8-kb PGHS mRNA = test: Northern blot of 2.8-kb PGHS (PGHS-1) mRNA in human monocytes; assay type: cell-based; settings: IL-1β, dexamethasone or cycloheximide treatment
Experimental: (§2) Poly-A enriched RNAs (2.5 μg) from C127 cells were fractionated by formaldehyde-agarose gel electrophoresis and transferred to a membrane (Duralon, Stratagene). Hybridization was carried out as previously described by O'Banion et al., 1991, J. Virol., 65:3481-3488, using the 5′ 1.2 kb EcoRI fragment of the 4.1 kb cDNA labeled with ^32P by random priming as disclosed by Feinberg et al., 1983, Anal. Biochem., 132:6-13. The membrane was later rehybridized with a similarly labeled portion (1.6 kb 5′ end) of the 2.8 kb ovine PGHS cDNA (Oxford Biomedical Research, Inc.), and an end-labeled 40-mer complimentary to β-tubulin (Oncor). RNA molecular weight markers (Life Technologies) were visualized by ethidium bromide staining. A similar analysis was performed on total RNA (5 μg/lane) isolated from human monocytes by the guanidinium-acid-phenol extraction method of Chomczynski et al., 1987, Anal. Biochem., 162:156-159.
Adherent human monocytes isolated from healthy donors as described by Roberts et al., 1978, J. Immunol, 121:1052-1058, were suspended in M199 medium without serum at 1×10^6 cells/ml. one ml aliquots in 5 ml polypropylene tubes were incubated with loosened caps in 5% CO2 at 37° C. with occasional shaking. […]

C127 mouse fibroblasts = test: Inhibition of protein synthesis in C127 cell cultures; assay type: cell-based; settings: C127, 0.25 h, within 15 min
Experimental: Exponentially growing, subconfluent (60-80%) cell monolayers (35-mm plates) were labeled in Dulbecco's modified Eagle's medium without methionine (Life Technologies) plus 200 μCi/ml Tran^35S-label (>1,000 Ci/mmol; ICN) for 15 or 30 min. In some cases, fresh fetal calf serum (10%) was present during the labeling period. Monolayers were rinsed twice with ice-cold Dulbecco's modified Eagle's medium (DMEM) with methionine prior to lysis in 200 μl of A8 buffer (9.5 M urea, 2% (w/v) Nonidet P-40, 2% (w/v) ampholines (LKB, 1.6% pH range 5-8, 04.% pH range 3.5-10), 5% (w/v) 2-mercaptoethanol). Incorporation of label into proteins was determined by trichloroacetic acid precipitation. Dexamethasone (Sigma) was freshly prepared in phosphate-buffered saline (PBS) (stock concentrations based on molar extinction coefficient of 1.5×10^4 liters/mol/cm at 250 nn) and added to 1 μM. The calcium ionophore A23187 (Calbiochem) was used at a concentration of 5 μM from a 2.5 mM stock in ethanol. Cycloheximide (Sigma) was used at a concentration of 25 μM from a 100× stock in water. This level inhibited protein synthesis by >97% within 15 min. Control cultures received appropriate amounts of solvents.

[1] = system: griPGHS mRNA (4.8-kb mRNA); test: Northern blot of griPGHS (PGHS-2) mRNA in human monocytes; assay type: cell-based; settings: for increased levels of griPGHS mRNA relative to control: IL-1β 10 half-maximal units
Experimental: as §2
(§3) Adherent human monocytes isolated from healthy donors as described by Roberts et al., 1978, J. Immunol, 121:1052-1058, were suspended in M199 medium without serum at 1×10^6 cells/ml. one ml aliquots in 5 ml polypropylene tubes were incubated with loosened caps in 5% CO2 at 37° C. with occasional shaking. To derive the autoradiograph shown in FIG. 3A, monocytes were incubated for 4 hr in the presence or absence of dexamethasone (1 AM; Sigma) prior to total RNA isolation by the procedure of P. Chomczynski et al., cited above. Five μg RNA was subjected to Northern blot analysis as described by O'Banion et al., 1991, J. Biol. Chem., 34:23261-23267 with the indicated probes labeled by random priming (kit from Boehringer-Mannheim) to a specific activity >1×10^9 cpm/μg. To derive the autoradiograph shown in FIG. 3B, monocytes were treated with dexamethasone (1 μM), […] (10 half-maximal units, Collaborative Research), or both for the indicated times prior to RNA isolation. Cycloheximide (25 μM; Sigma) was added to one set of incubations 15 min prior to the addition of cytokine or hormone.

human monocytes = test: Accumulated PGE2 in supernatant of human monocytes; assay type: cell-based; settings: after 4 hr of incubation, dexamethasone 1 μM; without 122.5
Experimental: as §1
as §3, with “Cycloheximide (25 μM; Sigma) was added to one set of incubations 15 min prior to the addition of cytokine or hormone.” left out

[2] = system: lung disease of cystic fibrosis; settings: high-dose, cystic fibrosis patient population; cited from earlier work

Molecule: CS(=O)(=O)Nc1ccc([N+](=O)[O-])cc1OC1CCCCC1 [NS-398]
induced cyclooxygenase activity (PGHS-2): blocked

Molecule: CC1=C(CC(=O)O)c2cc(F)ccc2/C1=C\c1ccc([S+](C)[O-])cc1 (stereo not drawn) [Sulindac]
effect on colon polyps (colon polyp): colon polyp regression

potency against griPGHS activity (rank among four NSAIDs) (griPGHS; 0.2 μM-2 mM, 30 min drug then 15 min arachidonic acid): the least
concentration not sufficient for full inhibition of griPGHS activity (griPGHS; highest dose tested): > 2 mM
Molecule: CC(=O)Nc1ccc(O)cc1 [acetaminophen]

Molecule: CC(=O)Oc1ccccc1C(=O)O [aspirin]
association of use with colon tumor outcome (colon tumor): decreased colon tumor growth and death
levels of drug required for inhibition, cells expressing PGHS-1 versus PGHS-2 (human PGHS-2): different

Molecule: C[C@@H]1C[C@@H]([C@H](O)CC2CC(=O)NC(=O)C2)C(=O)[C@@H](C)C1 [cycloheximide]
levels of the 2.8-kb mRNA relative to β-tubulin (2.8-kb PGHS mRNA): not significantly altered
inhibition at 25 µM (C127 mouse fibroblasts): > 97%
effect on 4.8-kb griPGHS mRNA ([1]; cycloheximide 25 μM added 15 min before cytokine or hormone): superinduction

Molecule: C[C@@H]1C[C@H]2[C@@H]3CCC4=CC(=O)C=C[C@]4(C)[C@@]3(F)[C@@H](O)C[C@]2(C)[C@@]1(O)C(=O)CO [dexamethasone]
level of accumulated PGE2 in the supernatant (human monocytes): 52.5 pg per 10^4 monocytes
griPGHS mRNA levels down-regulated, normalized to β-tubulin ([1]; dexamethasone 1 μM, 4 hr, human monocytes): 5 fold

Molecule: CC(C)Cc1ccc(C(C)C(=O)O)cc1 (stereo not drawn) [ibuprofen]
effect on lung disease [2]: slows the progression of lung disease

Molecule: IL-1β: proinflammatory cytokine, known mediator of inflammation (Collaborative Research)
levels of the 2.8-kb mRNA relative to β-tubulin (2.8-kb PGHS mRNA): not significantly altered
increased levels of griPGHS mRNA relative to control ([1]; 4 hr, human monocytes): 2.5 fold
increased levels of griPGHS mRNA relative to control ([1]; 12 hr, human monocytes): 14 fold

From patent US20040014702A1, “Mammalian prostaglandin H synthase-2” (priority 1992, published 2004)
